Measured values reported in patent US20250223297A1, “NOVEL RAPAMYCIN DERIVATIVES” (Novartis AG, priority 2017, published 2025).

Assays:
[1] = test system: mTORC1 pathway (S6 phosphorylation) in rat liver; experiment: Inhibition of mTORC1 pathway in rat liver (p-S6/t-S6 immunoblot); type: in vivo
Description: Protein extraction and immunoblotting. For protein extraction, snap frozen tissues were lysed in MSD Lysis Buffer (MSD, Rockville, Maryland), supplemented with complete EDTA free protease inhibitor and PhosSTOP phosphatase inhibitor tablets (Roche, Manheim, Germany), and centrifuged at 13,000g for 20 min at 4° C. The resultant supernatant was used for immunoblotting. Protein was quantified with BCA protein assay (Thermo Scientific, MA). Samples were resolved on 4-20% Criterion™ TGX™ Precast Midi Protein gels (Bio-Rad, CA) and transferred onto nitrocellulose membranes (Bio-Rad, CA) using a Trans Turbo Blot system (Bio-Rad, CA). Immunoblotting was performed with antibodies to p-S6 and t-S6 from Cell Signaling Technologies (all 1:1000 in TBS-T with 5% BSA). The ‘p’ and ‘t’ prefixes signify ‘phosphorylated’ and ‘total’ forms respectively. HRP-conjugated secondary antibodies against rabbit (#7074) were from Cell Signaling Technologies, MA. […] Resultant digital images were converted into a TIFF format and quantified using ImageJ software.
The ability of Example 2 to inhibit mTORC1 pathway in vivo was determined in rats aged 4 months (FIG. 5A-5D).

[2] = Comparative blood and brain concentrations in rats after single p.o. dose; type: in vivo; conditions: rat, single p.o. dose 3, 10, 30 mg/kg; 3 h and 24 h
Description: Concentrations were determined using HPLC/Mass spectrometry. […] Blood and brain tissues were collected at 3 hours (h) and 24 h following treatment to determine concentrations of the compounds.

[3] = molecular target: FKBP52 (Homo sapiens (Human), UniProt Q02790); experiment: SPR assay, binding affinity to FKBP52; conditions: single-cycle kinetics
Description: (§1) SPR Assay to Determine Binding Affinity to FK506-Binding Proteins (FKBP). N-terminal avi-his6 tagged FKBP fusions to FKBP12, FKBP51 and FKBP52 were expressed in E. coli and purified using standard chromatography. Each protein was subsequently immobilized on a streptavidin chip in a Biacore 8K SPR instrument (GE Healthcare). Using single-cycle kinetics, compound titrations were flowed at 45 uL/min over each surface using 2-minute association and 30-minute dissociation phases in a buffer containing 50 mM Tris pH 7.5/150 mM NaCl/0.01% Tween 20/1 mM DTT/2% DMSO. The data was fit using low molecular weight (LMW) single-cycle kinetics. The equilibrium dissociation constants (KD) are reported. […]

[4] = test system: S6K1 (Thr389) phosphorylation (mTORC1 activity) in FKBP12 knock-down 293T cells; experiment: S6K1 (Thr389) phosphorylation ELISA in FKBP12 knock-down 293T cells; type: cell-based; conditions: 2 h, relative to DMSO
[5] = molecular target: FKBP12 (Homo sapiens (Human), UniProt P62942); experiment: SPR assay, binding affinity to FKBP12; conditions: single-cycle kinetics
Description: as §1

[6] = test system: S6K1 (Thr389) phosphorylation (mTORC1 activity) in FKBP12 knock-out 293T cells; experiment: S6K1 (Thr389) phosphorylation ELISA in FKBP12 knock-out 293T cells; type: cell-based; conditions: 2 h, relative to DMSO
[7] = test system: S6K1 (Thr389) phosphorylation (mTORC1 activity) in WT 293T cells; experiment: S6K1 (Thr389) phosphorylation ELISA in wild-type 293T cells; type: cell-based; conditions: 2 h, relative to DMSO
Description: WT, FKBP12 knock-down and FKBP12 knock-out 293T cells were plated at a density of 30,000 cells per well in poly-D-Lysine coated 96-well plates (Corning, #354461) in Dulbecco's modified Eagle's medium (ThermoFisher, #11995-065) supplemented with 10% fetal bovine serum (ThermoFisher, #16140-071). Cells were incubated at 37° C., 5% CO2 for 48 hours until they reached ˜80% confluence. […] Media supplemented with blank Dimethyl sulfoxide (DMSO) was used as a control for both compounds. Phosphorylated amounts of S6K1 (Thr389) were detected by a sandwich ELISA kit (Cell signaling, #7063C) following the manufacture's protocol.
S6K1 is a downstream target of mTORC1 and phosphorylation of its rapalog-sensitive Thr389 site is used as a functional readout of mTORC1 activity. Lee, C. H., Inoki, K. and Guan, K. L. (2007). mTOR pathway as a target in […]. Annu. Rev. Pharmacol. Toxicol. 47. 443-467. […] In FKBP12 knock-out cells. […] Such specificity of Example 2 to FKBP12 may facilitate targeting cells and tissues with relatively high levels of FKBP12 expression, while avoiding (or minimizing) side effects in the tissues where FKBP12 is weakly expressed.

[8] = test system: mTORC1 signaling (pS6 Ser240/244) in MEF TSC1−/− cells; experiment: MEF TSC1-/- cell based assay for rapalog potency (pS6); parameters: species or system mouse; conditions: Mus musculus, 2 h, 2 h treatment, average from multiple assays
Excerpt: Potency of mTOR inhibitors may also be determined using a MEF TSC1−/− cell-based assay. MEF TSC1−/− cells are Mouse Embryonic Fibroblasts deficient in the Tuberous sclerosis protein, TSC1, which negatively regulates mTORC1 signaling. Thus, the deficiency of TSC1 induces constitutive mTORC1 activation, resulting in phosphorylation (activation) of the downstream proteins in the mTORC1 signaling pathways. This cell-based assay is used to measure inhibition (de-phosphorylation) of the mTORC1 signaling components S6 and 4EBP1, by rapalogs or other mTOR inhibitors.
The assay is typically carried out as follows: MEF TSC1−/− cells are plated on Poly-D-lysine coated 384 well Griener clear bottom plates and incubated overnight at 37° C., 5% CO2. […] Cells are fixed with 4% paraformaldehyde for 30 min and washed 5 times with TBS-EDTA followed by immuno-staining with florescent tag labeled antibodies for pS6 and p4EBP1. Nuclei are visualized with Hoechst staining. Cells are imaged using respective florescence channels and the potency of mTOR inhibitors is defined by pS6 IC50 (nM).
Cell-based assay for rapalog potency determination. Rapalog potency was determined using MEF TSC1−/− cell based assay. MEF TSC1−/− cells are Mouse Embryonic Fibroblasts deficient in Tuberous sclerosis protein-TSC1, which negatively regulates mTORC1 signaling and thus display constitutive mTORC1 activation, resulting in phosphorylation (activation) of downstream molecules. This cell-based assay is used to measure inhibition (de-phosphorylation) of S6 and 4EBP1 by rapalogs or other mTOR inhibitors.
MEF TSC1−/− cells were plated on Poly-D-lysine coated 384 well Griener clear bottom plates and incubated overnight at 37° C., 5% CO2. […] Nuclei were visualized with Hoechst (ThermoFisher Scientific #H3570) staining. Cells were imaged (InCell 600) using respective fluorescence channels and the potency of mTOR inhibitors was defined by pS6 IC50 (nM).
In vitro potency of mTOR inhibitors was defined by pS6 IC50 (nM) in MEF TSC1−/− cells.
IC50 values are calculated as the average from multiple assays.

FKBP12, sequence (P62942 whole entry): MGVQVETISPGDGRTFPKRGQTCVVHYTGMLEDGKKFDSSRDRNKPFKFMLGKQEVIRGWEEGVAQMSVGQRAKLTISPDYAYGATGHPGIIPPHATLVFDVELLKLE
FKBP52, sequence (Q02790 whole entry, the tested form may be a part): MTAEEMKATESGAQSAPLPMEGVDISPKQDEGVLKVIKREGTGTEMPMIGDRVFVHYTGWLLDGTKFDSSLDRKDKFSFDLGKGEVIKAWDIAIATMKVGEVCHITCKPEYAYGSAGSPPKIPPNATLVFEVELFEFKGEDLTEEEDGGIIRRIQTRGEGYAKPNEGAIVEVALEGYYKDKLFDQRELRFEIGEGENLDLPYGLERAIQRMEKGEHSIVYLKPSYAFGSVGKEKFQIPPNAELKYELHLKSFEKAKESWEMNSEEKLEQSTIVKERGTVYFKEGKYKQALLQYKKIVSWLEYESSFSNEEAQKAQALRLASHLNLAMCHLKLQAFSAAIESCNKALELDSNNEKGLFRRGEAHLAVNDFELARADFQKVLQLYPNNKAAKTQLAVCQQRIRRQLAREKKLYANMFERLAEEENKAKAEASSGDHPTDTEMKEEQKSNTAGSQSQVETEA

With CO[C@@H]1C[C@H](C[C@@H](C)[C@@H]2CC[C@H](C)/C=C(\C)[C@@H](O)[C@@H](OC)C(=O)[C@H](C)C[C@H](C)/C=C/C=C/C=C(\C)[C@H](N3CCCS3(=O)=O)C[C@@H]3CC[C@@H](C)[C@@](O)(O3)C(=O)C(=O)N3CCCC[C@H]3C(=O)O2)CC[C@H]1O [Example 2, (R)-C16-(1,1-dioxidoisothiazolidin-2-yl)-C32-deoxo-rapamycin] the “S6 inactivation in rat liver, 24 h” value ([1]; 24 h following dosing with 10 (trend p=0.06) and 30 mg/kg) was “remained inactivated”, the “de-phosphorylation (inactivation) of S6 in rat liver, 3 h” value ([1]; single p.o. dose 3, 10 and 30 mg/kg, three hours following dosing, vs vehicle) was “significant de-phosphorylation” and the “blood concentrations compared with RAD001” value [2] was “higher”. For the same molecule, the “brain concentrations compared with RAD001” value [2] was “higher”, the Kd [3] was greater than 10000 nM and the “maximum inhibition of S6K1 (Thr389)” value [4] was roughly 40%. For the same molecule, the Kd [5] was 16 nM, the “inhibition of S6K1 (Thr389) phosphorylation” value [6] was “failed to inhibit” and the “inhibition of S6K1 (Thr389)” value [7] was roughly 80%. The IC50 [8] was 0.274 nM.
